Structures can show the parent of a compound that is named as a salt. Marks after values point to notes of the source that are not given here.
Key:
[1] = tested on: motor activity (locomotion) and sedation behavior of male Swiss albino mice; test: Open field test, motor activity (locomotion) and sedation (Example 7); type: in vivo
Protocol: Rationale: The spontaneous locomotor activity in terms of total distance traveled is measured in open field test. Comparatively lower distance traveled would indicate either less motor activity or sedation.
Animal groups: Swiss albino male mice (6-7 weeks old; 25-40 g weight) were distributed in 10 different experimental groups with 12 […] per group as illustrated in Table
Study drugs: The test substances (Dexmedetomidine hydrochloride and latrepirdine dihydrochloride hydrate) were dissolved in 0.9% normal saline which served as the vehicle.
Study design and dosing: Mice were brought to the laboratory and allowed to acclimatize to the environment for at least 7 days. The open field test was done in lighting conditions of 40 lux light. The mice were dosed as per the grouping in Table 10. After a post dose interval of 60 minutes, 4 mice from a group were placed in the open field and the movement was tracked for a period of 30 minutes. Once the trial was over the mice were removed from the open field and the arena was cleaned. Following this, next set of 4 mice were placed in the arena and tracked.
Statistical analysis: The distance travelled for a period of 30 minutes was analyzed in bins of 5 minutes and was compared with that of the vehicle group using one-way ANOVA followed by Dunnett's test. All statistical analyses were performed using Graph pad prism software package (Version 7 or Higher) and p value below 0.05 was considered as significant.

[2] = tested on: CCK-4 induced panic anxiety in rats; test: Elevated plus maze, CCK-4 induced panic anxiety (Example 8); type: in vivo, Wistar rats; conditions: for Entries, % increase as compared to CCK-4/Vehicle / Entries, Mean ± SEM / Time, % increase as compared to CCK-4/Vehicle / Time, Mean ± SEM: CCK4 0.2 mg/kg i.p.
Source text: Rationale: In the past two decades panic induction with cholecystokinin-tetrapeptide (CCK-4) as an experimental model of human anxiety has become a focus of intensive research. CCK-4 is a synthetic analog of the endogenous neuropeptide cholecystokinin (CCK), which has been found in different brain regions. Particularly, high concentrations of CCK have been detected in regions that have been implicated in the mediation of panic attacks such as the cerebral cortex, amygdala, hippocampus, and brainstem nuclei. CCK-4 dose dependently induces panic attacks in healthy controls. Thus, CCK-4 has been postulated to fulfil the criteria for an ideal and valid panicogenic agent. […] Therefore, the CCK-4 challenge paradigm can serve as a useful tool to evaluate the anti-panic potential of novel anxiolytic compounds.
Animal groups: Male Wistar Rats were purchased at a body weight of 150 g and reached a body weight of about 220 g at the time of use. Animals were distributed in 6 different experimental groups with 12 […] per group as illustrated in Table 11. Each experimental group was also coded so that the experimenter became unaware of the true experimental group at the time EPM trial.
Study drugs: All compounds/drugs were prepared in saline (0.9% NaCl).
CCK-4 was prepared at a solution of 0.2 mg/ml which when injected i.p. at a dosage volume of 1 ml/kg results in a dose of 0.2 mg/kg.
Diazepam was prepared at a solution of 1 mg/ml which when injected i.p. at a dosage volume of 1 ml/kg results in a dose of 1 mg/kg.
Latrepirdine was prepared at concentrations of 2.5, 7.5, 25 and 37.5 mg/ml which when injected i.m. at a volume of 100 μL for a rat of 250 g results in doses of 1, 3, 10 and 15 mg/kg respectively.
Study design and dosing: The rats were randomly assigned to one of the different experimental groups. Each animal was identified by its group name, cage number, series (day) of experiment, and a number (from 1 to 4) written with permanent ink on its tail. They were handled by an experimenter for about 3 min each day during 1 week prior to the day of EPM trial.
The apparatus is a PVC maze covered with Plexiglas and subdivided into four equal exploratory arms (40×10 cm), which are all interconnected by a small platform (10×10 cm). The apparatus is placed 65 cm above the floor. Two arms are opened, and two others are closed with wall (high: 10 cm).
After compound administration, rat is placed on the platform opposite a closed arm. The number of entries and the time spent in each arm are recorded during a 5 min period. The animal is considered as entered in an arm when it places its four paws in the arm.
Statistical analysis: Data was analyzed using One-Way ANOVA followed by multiple comparison with Dunnett's post-hoc test. All statistical analyses were performed using GraphPad Prism software package (Version 9) and p value below 0.05 was considered as significant.

[3] = 1-15 mg/kg i.m., CCK-4 treated rats

| SMILES | distance traveled ([1]; 1 mg/kg, 3 mg/kg and 10 mg/kg, i.p.) | Entries, % increase as compared to CCK-4/Vehicle ([2]; 1 mg/kg i.m.) | Entries, Mean ± SEM ([2]; 1 mg/kg i.m.) [n] | Time, % increase as compared to CCK-4/Vehicle ([2]; 1 mg/kg i.m.) | Time, Mean ± SEM ([2]; 1 mg/kg i.m.) [s] | Entries, % increase as compared to CCK-4/Vehicle ([2]; 3 mg/kg i.m.) | Entries, Mean ± SEM ([2]; 3 mg/kg i.m.) [n] | Time, % increase as compared to CCK-4/Vehicle ([2]; 3 mg/kg i.m.) | Time, Mean ± SEM ([2]; 3 mg/kg i.m.) [s] | Entries, % increase as compared to CCK-4/Vehicle ([2]; 10 mg/kg i.m.) | Entries, Mean ± SEM ([2]; 10 mg/kg i.m.) [n] | Time, % increase as compared to CCK-4/Vehicle ([2]; 10 mg/kg i.m.) | Time, Mean ± SEM ([2]; 10 mg/kg i.m.) [s] | Entries, % increase as compared to CCK-4/Vehicle ([2]; 15 mg/kg i.m.) | Entries, Mean ± SEM ([2]; 15 mg/kg i.m.) [n] | Time, % increase as compared to CCK-4/Vehicle ([2]; 15 mg/kg i.m.) | Time, Mean ± SEM ([2]; 15 mg/kg i.m.) [s] | locomotion and sedation ([1]; latrepirdine, open field test) | dose with the greatest effect on entries and time in open arms [2, 3] [mg/kg] | number of entries to and time spent in the open arms, significance [2, 3] |
| --- | --- | --- | --- | --- | --- | --- | --- | --- | --- | --- | --- | --- | --- | --- | --- | --- | --- | --- | --- | --- |
| Cc1ccc2c(c1)c1c(n2CCc2ccc(C)nc2)CCN(C)C1 [latrepirdine dihydrochloride hydrate] | did not show any significant reduction in distance traveled | (47.37) % | 2.8 ± 0.4 | (83.33) % | 24.2 ± 4.7 | (31.58) % | 2.5 ± 0.2 | (98.48) % | 26.2 ± 3.3 | (73.68) * % | 3.3 ± 0.3 | (158.33) ** % | 34.1 ± 3.4 | (126.32) *** % | 4.3 ± 0.4 | (266.67) **** % | 48.4 ± 5.3 | – | – | – |
| Cc1ccc2c(c1)c1c(n2CCc2ccc(C)nc2)CCN(C)C1 [latrepirdine, 2,8-dimethyl-5-[2-(6-methylpyridin-3-yl)ethyl]-3,4-dihydro-1H-pyrido[4,3-b]indole] | – | – | – | – | – | – | – | – | – | – | – | – | – | – | – | – | – | did not cause any reduction in locomotion nor caused sedation | 15 | significant at the doses of 10 and 15 mg/kg |

— patent US20260325500A1, “METHODS AND COMPOSITIONS FOR TREATING ACUTE STRESS DISORDER” (BioXcel Therapeutics, Inc., priority 2022, published 2026)
